smiles,measurement,value
"O=S(=O)(CCCCCOc1ccc(C2=C(c3ccccc3)CCCc3cc(O)ccc32)cc1)c1ccccc1 [Example 53, 6-phenyl-5-[4-(5-phenylsulfonyl-pentyloxy)-phenyl]-8,9-dihydro-7H-benzocyclohepten-2-ol]",melting point,162 °C
"CC(C)(C)c1ccc(SCCCCCOc2ccc(C3=C(c4ccccc4)CCCc4cc(O)ccc43)cc2)cc1 [Example 54, 5-{4-[5-(4-tert-Butyl-phenylthio)-pentyloxy]-phenyl}-6-phenyl-8,9-dihydro-7H-benzocyclohepten-2-ol]",melting point,139 °C

# Reference: patent publication US7145015B2, “Benzocycloheptenes, process for their production, pharmaceutical preparations that contain that latter as well as their use for the production of pharmaceutical agents” (Schering AG, priority 1998, dated 2006)
